In US20110086908A9, “USE OF PHOSPHATASE INHIBITORS FOR THE TREATMENT OF NEURODEGENERATIVE DISEASES” (priority 2007, published 2011):
Entries after “also recorded” stand apart in the source; their conditions may differ.

Experiments:
[1] = test system: hippocampal LTP in slices from wildtype, I-1* control and I-1* transgenic mice; test: Aβ-oligomers bath application to acute hippocampal slices, LTP measurement; assay type: cell-based, mouse
[2] = test system: hippocampal LTP in slices from arcAβ mice and wt littermates; test: Tautomycin bath application to acute hippocampal slices, LTP measurement (fEPSP recordings); assay type: cell-based, mouse; conditions: 1 nM tautomycin, at least 1 h before recording
[3] = molecular target: T1, recombinant PP1 (Oryctolagus cuniculus, UniProt P62139); test: PP1 activity assay (Biomol Green Assay-Kit); assay type: biochemical; conditions: 1 nM tautomycin
T1 construct: purchased NEB
T1 sequence (P62139 whole entry): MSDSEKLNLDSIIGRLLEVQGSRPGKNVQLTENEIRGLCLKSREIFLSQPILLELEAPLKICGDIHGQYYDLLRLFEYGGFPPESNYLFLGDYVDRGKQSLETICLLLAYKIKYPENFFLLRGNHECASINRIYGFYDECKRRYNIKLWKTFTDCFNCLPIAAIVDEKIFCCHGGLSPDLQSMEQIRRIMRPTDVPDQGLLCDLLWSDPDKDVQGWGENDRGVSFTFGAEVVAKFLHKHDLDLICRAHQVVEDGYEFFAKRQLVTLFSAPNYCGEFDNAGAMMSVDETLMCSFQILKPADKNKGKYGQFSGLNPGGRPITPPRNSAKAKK
Method: (§1) Activity of recombinant PP1 (NEB) and calcineurin (Biomol) was measured with and without 1 nM tautomycin using the Biomol Green Assay-Kit (Biomol) according to manufacturer's instruction.

[4] = molecular target: T2, calcineurin (Homo sapiens, UniProt Q08209); test: Phosphatase activity assay (Biomol Green Assay-Kit), calcineurin; assay type: biochemical; conditions: 1 nM tautomycin
T2 construct: purchased Biomol
T2 sequence (P63098 2-170, other chains not shown): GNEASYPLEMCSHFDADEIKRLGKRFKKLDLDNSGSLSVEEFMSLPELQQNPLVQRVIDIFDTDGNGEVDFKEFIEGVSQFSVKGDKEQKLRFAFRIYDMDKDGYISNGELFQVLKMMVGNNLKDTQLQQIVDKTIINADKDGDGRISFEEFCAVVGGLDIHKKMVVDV
Method: as §1

| Compound | effect on LTP in slices from I-1* control mice (in words) ([1]; Aβ-oligomers bath-applied at least 1 h, I-1* littermate controls) | effect on LTP in slices from I-1* transgenic (mutant) mice with reduced PP1 activity (in words) ([1]; Aβ-oligomers bath-applied at least 1 h, I-1* transgenic mice) | effect on LTP in slices from wildtype mice (in words) ([1]; Aβ-oligomers corresponding to 0.5 μM initial peptide, bath-applied at least 1 h) | effect on LTP deficit in slices from arcAβ (tg) mice (in words) ([2]; 3 months old arcAβ mice) | effect on LTP in slices from wt (non-transgenic) mice (in words) ([2]; wt littermates) | inhibition at 0.001 µM [3] [%] | inhibition of recombinant PP1 activity (in words) [3] | inhibition at 0.001 µM [4] [%] | inhibition of calcineurin activity (in words) [4] |
| --- | --- | --- | --- | --- | --- | --- | --- | --- | --- |
| Aβ-oligomers: oligomers produced from synthetic Aβ 1-42 (Bachem) according to Klein | impair LTP; also recorded: Aβ-oligomers mediated LTP deficit | not in mutant mice; also recorded: failed to inhibit LTP | impair LTP; also recorded: LTP was inhibited | – | – | – | – | – | – |
| CO[C@H]([C@H](O)CC(=O)[C@@H](C)[C@@H](O)CC[C@@H](C)[C@@H]1O[C@]2(CC[C@@H](C)[C@H](CC[C@H](C)C(C)=O)O2)CC[C@@H]1C)[C@H](OC(=O)C[C@@H](O)C1=C(C)C(=O)OC1=O)C(C)C [tautomycin] | – | – | – | fully rescued the LTP deficit; also recorded: full rescue of LTP | has no effect | ~90 | specifically inhibits the activity of recombinant PP1 | < 10 | not calcineurin |
